A short description of this data set: Caco-2 cell permeability assay. Type of data set: in vitro ADME. The conditions noted are these: human, pH 7.4, approximate values; for efflux ratio at 2 h, 10 µM: Caco-2, Papp (B-A)/Papp (A-B); for Papp A→B at 2 h, 10 μM: Caco-2, apical to basolateral. The procedure: A Caco-2 cell permeability assay can be used for in vitro prediction of drug permeability and absorption, an important feature for a compound to be useful for methods described herein. The apparent permeability (Papp) of the compounds of the present disclosure were determined in Caco-2 cells to measure the rate of drug transport per surface area of the cell membrane. Further the efflux ratios of the compounds of the present disclosure were measured in Caco-2 cells to determine the apparent permeability coefficient in basolateral to apical direction with respect to the apparent permeability coefficient in apical to basolateral direction.
50 μL and 25 mL of cell culture medium were added to each well of the Transwell insert and reservoir, respectively. The HTS transwell plates were incubated at 37° C., 5% CO2 for 1 hour before cell seeding. Caco-2 cells were diluted to 6.86×10^5 cells/mL with culture medium and 50 μL of cell suspension were dispensed into the filter well of the 96-well HTS Transwell plate. Cells were cultivated for 14-18 days in a cell culture incubator at 37° C., 5% CO295% relative humidity. Cell culture medium was replaced every other day, beginning no later than 24 hours after initial plating.
Medium was removed from the reservoir and each Transwell insert and replaced with prewarmed fresh culture medium. Transepithelial electrical resistance (TEER) across the monolayer was measured using Millicell Epithelial Volt-Ohm measuring system (Millipore, USA). The Plate was returned to the incubator once the measurement was done. The TEER value was calculated according to the following equation: TEER measurement (ohms)×Area of membrane (cm^2)=TEER value (ohm·cm^2).
To prepare the HBSS (25 mM HEPES, pH 7.4), accurately weigh 5.958 g of HEPES and 0.35 g sodium hydrogen carbonate and add into 900 mL of pure water, then sonicate to dissolve the content. Transfer 100 mL of 10× HBSS into the solution, and place the solution on a stirrer, slowly adjust pH with sodium hydrate to 7.4, following with filtering. Add 6 μL of stock solution (10 mM) of test compound or control compound to 24 μL of DMSO into the same well to obtain 2 mM stock solutions. Transfer 3 μL of 2 mM solution into 597 μL of transport buffer in one 96 well plate to prepare the 10 μM compound working solution. Shake the plate at 1000 rpm for 10 min. The final concentration of DMSO in the incubation system was 0.5%. Metoprolol, erythromycin, and cimetidine were used as control compounds.
Assays can be conducted using Caco-2 cells to assay transport of a compound or composition For example, Caco-2 plates prepared as described above were removed from the incubator. Monolayers were washed twice with pre-warmed HBSS (25 mM HEPES, pH 7.4), then the plates were incubated at 37° C. for 30 minutes. To determine the rate of drug transport in the apical to basolateral direction, 108 μL of the working solution was added to the Transwell insert (apical compartment), and 8 μL sample was immediately transferred from the apical compartment to 72 μL transport buffer and 240 μL of acetonitrile containing IS (100 nM alprazolam, 200 nM caffeine and 100 nM tolbutamide) in a new 96-well plate as the initial donor sample (A-B). The samples were then vortexed at 1000 rpm for 10 minutes. The wells in the receiver plate (basolateral compartment) were filled with 300 μL of transport buffer. To determine the rate of drug transport in the basolateral to apical direction, 308 μL of the working solution were added to the receiver plate wells (basolateral compartment), and 8 μL sample was immediately transferred from the basolateral compartment to 72 μL transport buffer and 240 μL of acetonitrile containing IS (100 nM alprazolam, 200 nM caffeine and 100 nM tolbutamide) into a new 96-well plate as the initial donor sample (B-A), then Vortexed at 1000 rpm for 10 minutes. The Transwell insert (apical compartment) was filled with 100 μL of transport buffer. […]

Take `CCn1cc(C(=O)O)c(=O)c2c(N)c(F)c(NC3CCCCC3)cc21` [Compound I-7]: the efflux ratio at 2 h, 10 µM came out at 0.32 and the apical-to-basolateral permeability (Papp A→B) at 2 h, 10 μM was 13 ×10⁻⁶ cm/s.
With `CCn1cc(C(=O)O)c(=O)c2c(N)c(F)c(Nc3ccccc3)cc21` [Compound I-16], the efflux ratio at 2 h, 10 µM turned out to be 0.6 and the Papp A→B at 2 h, 10 μM stood at 17 ×10⁻⁶ cm/s.
For `CCn1cc(C(=O)O)c(=O)c2c(N)c(F)c(N[C@@H]3CC[C@H]3c3ccccc3)cc21` (relative stereo) [Compound I-13], the efflux ratio at 2 h, 10 µM stood at 0.53 and the Papp A→B at 2 h, 10 μM was found to be 5.5 ×10⁻⁶ cm/s.
As to `CCn1cc(C(=O)O)c(=O)c2c(N)c(F)c(NCCCc3ccccc3)cc21` [Compound I-19], the efflux ratio at 2 h, 10 µM was determined as 0.38 and the Papp A→B at 2 h, 10 μM is 5.9 ×10⁻⁶ cm/s.
Turning to `CCn1cc(C(=O)O)c(=O)c2c(N)c(F)c(NC3CCC3)cc21` [Compound I-12], the efflux ratio at 2 h, 10 µM was found to be 0.72 and the Papp A→B at 2 h, 10 μM turned out to be 21 ×10⁻⁶ cm/s.
Regarding `CCn1cc(C(=O)O)c(=O)c2c(N)c(F)c(N(C)CCN[C@H]3C[C@@H]3c3ccccc3)cc21` (relative stereo) [Compound I-50], the efflux ratio at 2 h, 10 µM was 1.04 and the Papp A→B at 2 h, 10 μM was 9.7 ×10⁻⁶ cm/s.
As for `CCn1cc(C#N)c(=O)c2c(N)c(F)c(N[C@@H]3C[C@H]3c3ccccc3)cc21` (relative stereo) [Compound I-38], the efflux ratio at 2 h, 10 µM amounted to 0.75 and the Papp A→B at 2 h, 10 μM was determined as 1.6 ×10⁻⁶ cm/s.
The like results for `CCn1cc(C(N)=O)c(=O)c2c(N)c(F)c(NCCN[C@H]3C[C@@H]3c3ccccc3)cc21` (relative stereo) [Compound I-83] were, in that order, 1.3 and 5.1 ×10⁻⁶ cm/s.
As to `CCn1cc(C(=O)O)c(=O)c2c(N)c(F)c(NC3CN(c4ccccc4)C3)cc21` [Compound I-69], the efflux ratio at 2 h, 10 µM is 0.78 and the Papp A→B at 2 h, 10 μM was found to be 4.6 ×10⁻⁶ cm/s.
For `CCn1cc(C#N)c(=O)c2c(N)c(F)c(NCCc3ccccc3)cc21` [Compound I-67], the efflux ratio at 2 h, 10 µM came out at 0.24 and the apical-to-basolateral permeability (Papp A→B) at 2 h, 10 μM was 2.2 ×10⁻⁶ cm/s.
For `CCn1cc(C(=O)O)c(=O)c2c(N)c(F)c(NC3CCOCC3)cc21` [Compound I-8], in that order: 3.02 and 11 ×10⁻⁶ cm/s.
For `CCCn1cc(C(=O)O)c(=O)c2c(N)c(F)c(NCCN[C@@H]3C[C@H]3c3ccccc3)cc21` (relative stereo) [Compound I-87], the efflux ratio at 2 h, 10 µM amounted to 1.4 and the apical-to-basolateral permeability (Papp A→B) at 2 h, 10 μM was found to be 4.7 ×10⁻⁶ cm/s.
For the compound `CCn1cc(C(=O)O)c(=O)c2c(N)cc(N[C@@H]3C[C@H]3c3ccccc3)cc21` (relative stereo) [Compound I-59], the efflux ratio at 2 h, 10 µM is 0.58 and the Papp A→B at 2 h, 10 μM was found to be 6.4 ×10⁻⁶ cm/s.
For `CCn1cc(C(N)=O)c(=O)c2c(N)c(F)c(NCCc3ccccc3)cc21` [Compound I-66], the efflux ratio at 2 h, 10 µM was found to be 58 and the Papp A→B at 2 h, 10 μM was determined as 1.8 ×10⁻⁶ cm/s.
In the case of `CCn1cc(C(=O)O)c(=O)c2c(N)c(F)c(N[C@@H]3C[C@@H]3c3ccccc3)cc21` (relative stereo) [Compound I-23], the efflux ratio at 2 h, 10 µM amounted to 0.69 and the Papp A→B at 2 h, 10 μM amounted to 1.1 ×10⁻⁶ cm/s.
For the compound `CCn1cc(C(=O)O)c(=O)c2c(N)c(F)c(N[C@H]3CC[C@@H](N[C@@H]4C[C@H]4c4ccccc4)CC3)cc21` (relative stereo) [Compound I-28], the efflux ratio at 2 h, 10 µM stood at 0.48 and the Papp A→B at 2 h, 10 μM was 3.1 ×10⁻⁶ cm/s.
The like results for `Nc1c(F)c(N[C@@H]2C[C@H]2c2ccccc2)c(F)c2c1c(=O)c(C(=O)O)cn2C1CC1` (relative stereo) [Compound I-32] were, in that order, 0.47 and 4.2 ×10⁻⁶ cm/s.
With `CCn1cc(C(=O)O)c(=O)c2c(N)c(F)c(Nc3ccc([C@@H]4C[C@H]4N)cc3)cc21` (relative stereo) [Compound I-62], the efflux ratio at 2 h, 10 µM came to 38 and the Papp A→B at 2 h, 10 μM turned out to be 0.82 ×10⁻⁶ cm/s.
For `CCn1cc(-c2nnn[nH]2)c(=O)c2c(N)c(F)c(NCCc3ccccc3)cc21` [Compound I-68], in that order: 0.63 and 0.06 ×10⁻⁶ cm/s.
With `CCn1cc(C#N)c(=O)c2c(N)c(F)c(NCCN[C@@H]3C[C@H]3c3ccccc3)cc21` (relative stereo) [Compound I-84], the efflux ratio at 2 h, 10 µM is 2.1 and the Papp A→B at 2 h, 10 μM is 4.1 ×10⁻⁶ cm/s.
Regarding `CCn1cc(C(=O)O)c(=O)c2c(N)c(F)c(NC3CC3)cc21` [Compound I-15], the efflux ratio at 2 h, 10 µM was 0.48 and the Papp A→B at 2 h, 10 μM worked out at 38 ×10⁻⁶ cm/s.
`CCn1cc(C(=O)O)c(=O)c2c(N)c(F)c(NCc3ccccc3)cc21` [Compound I-17]: the efflux ratio at 2 h, 10 µM was found to be 0.45 and the Papp A→B at 2 h, 10 μM was 23 ×10⁻⁶ cm/s.
For `CCn1cc(C(=O)O)c(=O)c2c(N)c(F)c(NCCc3ccccc3)cc21` [Compound I-18], in that order: 0.66 and 11 ×10⁻⁶ cm/s.
In the case of `CCn1cc(C(=O)O)c(=O)c2c(N)cc(NCCCc3ccccc3)cc21` [Compound I-57], the efflux ratio at 2 h, 10 µM was determined as 0.4 and the Papp A→B at 2 h, 10 μM turned out to be 7.1 ×10⁻⁶ cm/s.
`CCn1cc(C(=O)O)c(=O)c2cc(F)c(NC3CCCCC3)cc21` [Compound I-1]: the efflux ratio at 2 h, 10 µM was 0.47 and the Papp A→B at 2 h, 10 μM turned out to be 31 ×10⁻⁶ cm/s.
As to `CCn1cc(C(=O)O)c(=O)c2c(N)c(F)c(N[C@H]3C[C@@H](c4ccccc4)C3)cc21` [Compound I-61], the efflux ratio at 2 h, 10 µM worked out at 0.85 and the Papp A→B at 2 h, 10 μM amounted to 0.11 ×10⁻⁶ cm/s.
The like results for `CCn1cc(C(=O)O)c(=O)c2c(N)c(F)c(NC3Cc4ccccc4C3)cc21` [Compound I-11] were, in that order, 0.53 and 5.5 ×10⁻⁶ cm/s.
Consider `CCn1cc(C(=O)O)c(=O)c2c(N)c(F)c(N[C@H]3C[C@H](c4ccccc4)C3)cc21` [Compound I-60], for which the efflux ratio at 2 h, 10 µM is 0.5 and the Papp A→B at 2 h, 10 μM is 0.32 ×10⁻⁶ cm/s.
For `CCn1cc(C(=O)O)c(=O)c2c(N)c(F)c(NCCN[C@@H]3C[C@H]3c3ccccc3)cc21` (relative stereo) [Compound I-29], in that order: 0.39 and 9.1 ×10⁻⁶ cm/s.
With `CCn1cc(C(=O)O)c(=O)c2c(N)c(F)c(NCCN[C@@H]3C[C@]34CCc3ccccc34)cc21` (relative stereo) [Compound I-81], the efflux ratio at 2 h, 10 µM came out at 0.59 and the Papp A→B at 2 h, 10 μM came out at 5.9 ×10⁻⁶ cm/s.
Turning to `CCn1cc(C(=O)O)c(=O)c2c(N)c(F)c(NC3CCCC3)cc21` [Compound I-9], the efflux ratio at 2 h, 10 µM was 0.56 and the Papp A→B at 2 h, 10 μM came out at 3.4 ×10⁻⁶ cm/s.
The like results for `CCn1cc(C(=O)O)c(=O)c2c(N)c(F)c(NC3CCc4ccccc43)cc21` (stereo not drawn) [Compound I-10] were, in that order, 0.56 and 6.3 ×10⁻⁶ cm/s.
Regarding `CCn1cc(C(=O)O)c(=O)c2c(N)c(F)c(N[C@@H]3C[C@H]3c3ccccc3)cc21` (single isomer, unassigned) [Compound I-20], the efflux ratio at 2 h, 10 µM stood at 0.29 and the Papp A→B at 2 h, 10 μM is 6.1 ×10⁻⁶ cm/s.
As to `CCn1cc(C(=O)O)c(=O)c2c(N)c(F)c(NC3CC(N[C@@H]4C[C@H]4c4ccccc4)C3)cc21` (relative stereo) [Compound I-70], the efflux ratio at 2 h, 10 µM was found to be 1.2 and the Papp A→B at 2 h, 10 μM turned out to be 2.4 ×10⁻⁶ cm/s.
As to `Cn1cc(C(=O)O)c(=O)c2c(N)c(F)c(NCCN[C@@H]3C[C@H]3c3ccccc3)cc21` (relative stereo) [Compound I-86], the efflux ratio at 2 h, 10 µM is 1.4 and the Papp A→B at 2 h, 10 μM was 5 ×10⁻⁶ cm/s.
`CCC(CC)n1cc(C(=O)O)c(=O)c2c(C)c(F)c(NC3CCCCC3)cc21` [Compound I-3]: the efflux ratio at 2 h, 10 µM was 0.27 and the Papp A→B at 2 h, 10 μM was found to be 3.3 ×10⁻⁶ cm/s.

The record behind these values is patent US20230058189A1, “QUINOLIN-4-ONE AND 4(1H)-CINNOLINONE COMPOUNDS AND METHODS OF USING SAME” (Frequency Therapeutics, Inc., priority 2019, published 2023).
